Measured values published in ChEMBL document CHEMBL4715697, “Synthesis and biological activity of benzamide DNA minor groove binders” (2016).

Tests used:
Type in all cases: functional
NCI-H23 = assay: Growth inhibition of human NCI-H23 cells assessed as cell growth at 0.01 uM incubated for 48 hrs by sulforhodamine B assay relative to control; details: read-out: Activity
NCI-H322M = assay: Growth inhibition of human NCI-H322M cells assessed as cell growth at 0.01 uM incubated for 48 hrs by sulforhodamine B assay relative to control; details: read-out: Activity
SW-620 = assay: Growth inhibition of human SW-620 cells assessed as cell growth at 0.01 uM incubated for 48 hrs by sulforhodamine B assay relative to control; details: read-out: Activity
MDA-MB-468 = assay: Growth inhibition of human MDA-MB-468 cells assessed as cell growth at 0.01 uM incubated for 48 hrs by sulforhodamine B assay relative to control; details: read-out: Activity
KM12 = assay: Growth inhibition of human KM12 cells assessed as cell growth at 0.1 uM incubated for 48 hrs by sulforhodamine B assay relative to control; details: read-out: Activity
LOX IMVI = assay: Growth inhibition of human LOX IMVI cells assessed as cell growth at 0.1 uM incubated for 48 hrs by sulforhodamine B assay relative to control; details: read-out: Activity
SK-MEL-2 [1] = assay: Growth inhibition of human SK-MEL-2 cells assessed as cell growth at 0.1 uM incubated for 48 hrs by sulforhodamine B assay relative to control; details: read-out: Activity
SK-MEL-28 = assay: Growth inhibition of human SK-MEL-28 cells assessed as cell growth at 0.1 uM incubated for 48 hrs by sulforhodamine B assay relative to control; details: read-out: Activity
UO-31 [2] = assay: Growth inhibition of human UO-31 cells assessed as cell growth at 0.1 uM incubated for 48 hrs by sulforhodamine B assay relative to control; details: read-out: Activity
K562 = assay: Growth inhibition of human K562 cells assessed as cell growth at 1 uM incubated for 48 hrs by sulforhodamine B assay relative to control; details: read-out: Activity
MOLT-4 [3] = assay: Growth inhibition of human MOLT-4 cells assessed as cell growth at 1 uM incubated for 48 hrs by sulforhodamine B assay relative to control; details: read-out: Activity
SK-MEL-2 [4] = assay: Growth inhibition of human SK-MEL-2 cells assessed as cell growth at 1 uM incubated for 48 hrs by sulforhodamine B assay relative to control; details: read-out: Activity
IGROV-1 = assay: Growth inhibition of human IGROV-1 cells assessed as cell growth at 1 uM incubated for 48 hrs by sulforhodamine B assay relative to control; details: read-out: Activity
TK-10 = assay: Growth inhibition of human TK-10 cells assessed as cell growth at 1 uM incubated for 48 hrs by sulforhodamine B assay relative to control; details: read-out: Activity
RPMI-8226 = assay: Growth inhibition of human RPMI-8226 cells assessed as cell growth at 100 uM incubated for 48 hrs by sulforhodamine B assay relative to control; details: read-out: Activity
SR [5] = assay: Growth inhibition of human SR cells assessed as cell growth at 100 uM incubated for 48 hrs by sulforhodamine B assay relative to control; details: read-out: Activity
EKVX = assay: Growth inhibition of human EKVX cells assessed as cell growth at 100 uM incubated for 48 hrs by sulforhodamine B assay relative to control; details: read-out: Activity
HOP-62 = assay: Growth inhibition of human HOP-62 cells assessed as cell growth at 100 uM incubated for 48 hrs by sulforhodamine B assay relative to control; details: read-out: Activity
NCI-H522 = assay: Growth inhibition of human NCI-H522 cells assessed as cell growth at 100 uM incubated for 48 hrs by sulforhodamine B assay relative to control; details: read-out: Activity
COLO 205 [6] = assay: Growth inhibition of human COLO 205 cells assessed as cell growth at 100 uM incubated for 48 hrs by sulforhodamine B assay relative to control; details: read-out: Activity
M14 = assay: Growth inhibition of human M14 cells assessed as cell growth at 100 uM incubated for 48 hrs by sulforhodamine B assay relative to control; details: read-out: Activity
SN12C = assay: Growth inhibition of human SN12C cells assessed as cell growth at 100 uM incubated for 48 hrs by sulforhodamine B assay relative to control; details: read-out: Activity
UO-31 [7] = assay: Growth inhibition of human UO-31 cells assessed as cell growth at 100 uM incubated for 48 hrs by sulforhodamine B assay relative to control; details: read-out: Activity
CCRF-CEM = assay: Growth inhibition of human CCRF-CEM cells incubated for 48 hrs by sulforhodamine B assay
MOLT-4 [8] = assay: Growth inhibition of human MOLT-4 cells incubated for 48 hrs by sulforhodamine B assay
SR [9] = assay: Growth inhibition of human SR cells incubated for 48 hrs by sulforhodamine B assay
NCI-H226 = assay: Growth inhibition of human NCI-H226 cells incubated for 48 hrs by sulforhodamine B assay
COLO 205 [10] = assay: Growth inhibition of human COLO 205 cells incubated for 48 hrs by sulforhodamine B assay
HCT-15 = assay: Growth inhibition of human HCT-15 cells incubated for 48 hrs by sulforhodamine B assay
SF-295 = assay: Growth inhibition of human SF-295 cells incubated for 48 hrs by sulforhodamine B assay
SF-539 = assay: Growth inhibition of human SF-539 cells incubated for 48 hrs by sulforhodamine B assay
CAKI-1 = assay: Growth inhibition of human CAKI-1 cells incubated for 48 hrs by sulforhodamine B assay
[11] = read-out: LC50 (the source's name)
[12] = read-out: pLC50 (the source's name) (converted)

CC(=O)Nc1cc(CCl)cc(NC(=O)c2ccc(C(=O)Nc3cccc(NC(=O)CCCN(C)C)c3)cc2)c1
growth at 0.01 µM (NCI-H23): 96%
growth at 0.01 µM (NCI-H322M): 106%
growth at 0.01 µM (SW-620): 106%
growth at 0.01 µM (MDA-MB-468): 90%
growth at 0.1 µM (KM12): 108%
growth at 0.1 µM (LOX IMVI): 92%
growth at 0.1 µM (SK-MEL-2 [1]): 111%
growth at 0.1 µM (SK-MEL-28): 91%
growth at 0.1 µM (UO-31 [2]): 97%
growth at 1 µM (K562): 96%
growth at 1 µM (MOLT-4 [3]): 99%
growth at 1 µM (SK-MEL-2 [4]): 109%
growth at 1 µM (IGROV-1): 110%
growth at 1 µM (TK-10): 102%
growth at 100 µM (RPMI-8226): 107%
growth at 100 µM (SR [5]): 99%
growth at 100 µM (EKVX): 84%
growth at 100 µM (HOP-62): 95%
growth at 100 µM (NCI-H522): 83%
growth at 100 µM (COLO 205 [6]): 100%
growth at 100 µM (M14): 91%
growth at 100 µM (SN12C): 102%
growth at 100 µM (UO-31 [7]): 113%
GI50 (CCRF-CEM; read-out: GI50): 22.4 µM
CC50 (CCRF-CEM; [11]): 78.2 µM
TGI (CCRF-CEM; read-out: TGI): 41.8 µM
GI50 (CCRF-CEM; read-out: pGI50 (converted)): 22.4 µM
CC50 (CCRF-CEM; [12]): 77.6 µM
TGI (CCRF-CEM; read-out: pTGI (converted)): 41.7 µM
GI50 (MOLT-4 [8]; read-out: GI50): > 100 µM
CC50 (MOLT-4 [8]; [11]): > 100 µM
TGI (MOLT-4 [8]; read-out: TGI): > 100 µM
GI50 (MOLT-4 [8]; read-out: pGI50 (converted)): > 100 µM
CC50 (MOLT-4 [8]; [12]): > 100 µM
TGI (MOLT-4 [8]; read-out: pTGI): > 100 µM
GI50 (SR [9]; read-out: GI50): > 100 µM
CC50 (SR [9]; [11]): > 100 µM
TGI (SR [9]; read-out: TGI): > 100 µM
GI50 (SR [9]; read-out: pGI50 (converted)): > 100 µM
CC50 (SR [9]; [12]): > 100 µM
TGI (SR [9]; read-out: pTGI): > 100 µM
GI50 (NCI-H226; read-out: GI50): > 100 µM
CC50 (NCI-H226; [11]): > 100 µM
TGI (NCI-H226; read-out: TGI): > 100 µM
GI50 (NCI-H226; read-out: pGI50 (converted)): > 100 µM
CC50 (NCI-H226; [12]): > 100 µM
TGI (NCI-H226; read-out: pTGI): > 100 µM
GI50 (COLO 205 [10]; read-out: GI50): > 100 µM
LC50 (COLO 205 [10]; read-out: LC50): > 100 µM
TGI (COLO 205 [10]; read-out: TGI): > 100 µM
GI50 (COLO 205 [10]; read-out: pGI50 (converted)): > 100 µM
LC50 (COLO 205 [10]; read-out: pLC50 (converted)): > 100 µM
TGI (COLO 205 [10]; read-out: pTGI): > 100 µM
GI50 (HCT-15; read-out: GI50): > 100 µM
CC50 (HCT-15; [11]): > 100 µM
TGI (HCT-15; read-out: TGI): > 100 µM
GI50 (HCT-15; read-out: pGI50 (converted)): > 100 µM
CC50 (HCT-15; [12]): > 100 µM
TGI (HCT-15; read-out: pTGI): > 100 µM
GI50 (SF-295; read-out: GI50): 37.8 µM
LC50 (SF-295; read-out: LC50): > 100 µM
TGI (SF-295; read-out: TGI): > 100 µM
GI50 (SF-295; read-out: pGI50 (converted)): 38 µM
LC50 (SF-295; read-out: pLC50 (converted)): > 100 µM
TGI (SF-295; read-out: pTGI): > 100 µM
GI50 (SF-539; read-out: GI50): > 100 µM
CC50 (SF-539; [11]): > 100 µM
TGI (SF-539; read-out: TGI): > 100 µM
GI50 (SF-539; read-out: pGI50 (converted)): > 100 µM
CC50 (SF-539; [12]): > 100 µM
TGI (SF-539; read-out: pTGI): > 100 µM
GI50 (CAKI-1; read-out: GI50): > 100 µM
CC50 (CAKI-1; [11]): > 100 µM
TGI (CAKI-1; read-out: TGI): > 100 µM
GI50 (CAKI-1; read-out: pGI50 (converted)): > 100 µM
CC50 (CAKI-1; [12]): > 100 µM
TGI (CAKI-1; read-out: pTGI): > 100 µM
